Test results: ChEMBL document CHEMBL5528066, “Discovery of Novel N-(Anthracen-9-ylmethyl) Benzamide Derivatives as ZNF207 Inhibitors Promising in Treating Glioma” (J Med Chem, 2024)
Calls of active or inactive are those of the source. The calls are words filed in the database; no cut-off is given here.

Columns and labels:
[1] = target: BUB3-interacting and GLEBS motif-containing protein ZNF207 (Homo sapiens, UniProt O43670); test: Binding affinity to ZNF207 in human U-251MG cells assessed as thermal stabilization by measuring increase in melting temperature at 30 uM incubated for 3 hrs by CETSA; assay type: cell-based
Chain of BUB3-interacting and GLEBS motif-containing protein ZNF207 (O43670 whole entry): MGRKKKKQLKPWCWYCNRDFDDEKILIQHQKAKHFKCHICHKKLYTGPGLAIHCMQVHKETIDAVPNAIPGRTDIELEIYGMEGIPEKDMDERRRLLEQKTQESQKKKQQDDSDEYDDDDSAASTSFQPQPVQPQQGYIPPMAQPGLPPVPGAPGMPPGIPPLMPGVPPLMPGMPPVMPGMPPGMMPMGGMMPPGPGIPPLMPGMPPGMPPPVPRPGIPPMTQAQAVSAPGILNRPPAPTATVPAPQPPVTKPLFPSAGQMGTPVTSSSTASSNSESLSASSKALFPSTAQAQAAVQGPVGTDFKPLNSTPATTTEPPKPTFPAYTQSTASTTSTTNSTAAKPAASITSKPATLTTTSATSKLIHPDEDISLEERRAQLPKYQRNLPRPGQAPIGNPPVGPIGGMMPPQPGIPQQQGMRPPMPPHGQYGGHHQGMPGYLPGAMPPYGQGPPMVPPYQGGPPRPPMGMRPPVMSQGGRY

LN-229 = test: Antitumor activity against human LN-229 cells xenografted in BALB/c nude mouse assessed as tumor growth inhibition at 15 to 45 mg/kg, po administered once a day and measured every 2 days for 49 days relative to control; assay type: functional; conditions: dose 15-45 mg/kg, time 49 day
H4 = test: Inhibition of sphere formation in human H4 cells at 2 uM measured after 10 days in well containing 10000 cells by microscopic analysis; assay type: functional, cell-based; conditions: time 10.0 day
Hs 683 = test: Inhibition of sphere formation in human Hs 683 cells at 8 uM measured after 10 days in well containing 100 cells by microscopic analysis; assay type: functional, cell-based; conditions: time 10.0 day

SMILES: N#CC1(C(=O)NCCC2CCN(Cc3ccccc3)CC2)CC2(Br)c3ccccc3C1c1ccccc12 (racemic)
- ΔTm [1]: 5.2 °C
- TGI (LN-229): ~55%
- inhibition (H4): inactive
- inhibition (Hs 683): Active
